Reference: publication PMC10386076, “Discovery of RC-752, a Novel Sigma-1 Receptor Antagonist with Antinociceptive Activity: A Promising Tool for Fighting Neuropathic Pain” (Pharmaceuticals, 2023)

What was measured:
HeLa cells = assay: AQP-mediated osmotic water permeability assay (stopped-flow light scattering); settings: pre-treatment 20 μM, heat stress 42 °C 3 h
Protocol: As an orthogonal assay to determine the functional profile of our compounds, the effect on AQP-mediated water permeability was investigated. AQPs are a family of transmembrane proteins involved in the transport of water and other small molecules (e.g., H2O2) through cell membranes. AQP functions are thus critical in ensuring reactive oxygen species (ROS) scavenging and cell survival. […] Briefly, the osmotic water permeability of HeLa cells was measured by a stopped-flow light scattering method and expressed as a percentage of k relative.
Osmotic water permeability was measured in the HeLa cell suspension by the stopped-flow light scattering method, as previously described. The experiments were performed at 25 °C on the stopped-flow apparatus (RX2000, Applied Photophysics, Leatherhead, UK) with a pneumatic drive accessory (DA.1, Applied Photophysics) straightforwardly coupled with a Varian Cary 50 spectrometer (Varian Australia Pty Ltd., Mulgrave, Australia). Briefly, scattered light intensity with a dead time of 6 ms was recorded at a wavelength of 450 nm. […] To evaluate the effect of the test compounds on water permeability, the HeLa cells were divided into different groups: (1) controls, cells incubated at r.t. (21 °C) in the presence of the same volume of methanol as that of the treated cells; (2) heat-stressed cells, cells heat-treated in a water thermostatic and shacking bath at 42 °C for 3 h; (3) heat-stressed cells pre-treated with the test compounds at a 20 µM final concentration (dissolved in methanol).

S1R = molecular target: T1, S1R (Cavia porcellus, UniProt Q60492); assay: S1R radioligand displacement binding assay ([3H]-(+)-pentazocine); set-up: species or system guinea pig; settings: for Selectivity (Ki S2R/Ki S1R): ratio Ki S2R/Ki S1R
T1 construct: tissue Harlan-Winkelmann, Borchen, Germany; host or cells: guinea pig brain membrane homogenate
Protocol: (R/S)-1a–3e were first evaluated for their binding affinity toward the S1R and S2R in a radioligand displacement assay. […] Nonspecific binding was determined using non-radiolabeled (+)-pentazocine and haloperidol in excess. All the binding experiments were carried out in duplicate. […] Haloperidol was used as a control compound in both assays.
Five guinea pig brains were homogenized with the potter (500–800 rpm, 10 up and down strokes) in 6 volumes of cold 0.32 M sucrose. The suspension was centrifuged at 1200× g for 10 min at 4 °C. […] This procedure was repeated twice. The final pellet was resuspended in 56 volumes of buffer and frozen ([…]) in 1.5 mL portions containing about 1.5 mg protein/mL.
The test compound solutions were prepared by dissolving approximately 10 µmol (usually 2–4 mg) of test compound in dimethyl sulfoxide (DMSO, unless otherwise specified), so that a 10 mM stock solution was obtained. To obtain the required test solutions for the assay, the DMSO stock solution was diluted with the respective assay buffer. The filtermats were presoaked in 0.5% aqueous polyethylenamine solution for 2 h at r.t. before use. All the binding experiments were carried out in duplicate in 96-well multiplates. The concentrations given are the final concentrations in the assay. […] The receptor preparation was always added last. During the incubation, the multiplates were shaken at a speed of 500–600 rpm at the specified temperature. […] During the filtration each well was washed five times with 300 µL of water. Subsequently, the filtermats were dried at 95 °C. The solid scintillator was melted on the dried filtermats at 95 °C for 5 min. After the solidifying of the scintillator at r.t., the trapped radioactivity in the filtermats was measured with the scintillation analyzer. Each position on the filtermat corresponding to one well of the multiplate was measured for 5 min with the [^3H]-counting protocol. The overall counting efficiency was 20%. The IC50 values were calculated with GraphPad Prism 3.0 (GraphPad Software, San Diego, CA, USA) by nonlinear regression analysis. The IC50 values were subsequently transformed into Ki values using the equation of Cheng and Prusoff. All the experiments were carried out in duplicates. Compounds with high S1R affinity were tested in three independent experiments, and their Ki values are given as mean value ± SEM from the three measurements. […] (22.0 Ci/mmol; Perkin-Elmer). […] The nonspecific binding was determined with 10 µM unlabeled (+)-pentazocine.

PC12 cells = assay: NGF-induced neurite outgrowth assay in PC12 cells; type: cell-based; settings: for effect on percentage of differentiated PC12 cells, co-administration with PRE-084: 0.25 μM and 2.5 μM with 10 μM PRE-084, vs PRE-084; for effect on NGF-induced neurite outgrowth, compound alone: 0.25 μM and 2.5 μM, vs NGF
Protocol: At 80% confluence, the cells were either split to allow a further culture expansion or plated onto 48-well flat-bottom plates previously coated with poly-L-ornithine (Sigma Aldrich, Milan, Italy) at the final concentration of 10 μg/cm^2. The cells were plated at low density (2500 cells/well) to allow proper neurite elongation. The PC12 cells were mechanically detached from the flask to avoid cell-surface receptor cleavage and to preserve the correct binding of NGF to the TrkA receptors. To minimize detachment stress, the cells were left in PM for 24 h to recover. […] PRE-084 (10 µM), an S1R agonist, was used to verify that the effects of the selected compounds were due to the S1R modulation. In CTR conditions, the cells were incubated with the drug vehicle. For all the ligands, two replicates per concentration were performed in at least 3 experiments with different PC12 batches.
After 72 h incubation in DM, the cells were fixed with a 4% paraformaldehyde solution (pH 7.4). To allow the neurite visualization with a bright-field microscope, the cells were stained with the Harris Hematoxylin solution (Sigma Aldrich). After staining, images of six fields per well were acquired with a digital camera linked to a bright-field inverted microscope (Optika) (20× magnification). […] Only the cells bearing a neurite as long as their soma’s diameter were identified as differentiated cells. The number of differentiated cells was expressed as the percentage of differentiated cells over the total number of cells.

T1 sequence (Q60492 whole entry): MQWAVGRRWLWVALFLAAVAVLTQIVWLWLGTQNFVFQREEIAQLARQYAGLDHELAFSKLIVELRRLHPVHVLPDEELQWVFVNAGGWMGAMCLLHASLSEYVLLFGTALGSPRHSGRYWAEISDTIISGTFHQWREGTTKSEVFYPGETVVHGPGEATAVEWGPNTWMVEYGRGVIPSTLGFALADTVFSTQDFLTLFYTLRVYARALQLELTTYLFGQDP

Molecule	Ki (S1R)	Selectivity (Ki S2R/Ki S1R) (S1R)	other results
OCC(CCN1CCCCC1)c1ccc2ccccc2c1 (stereo not drawn) [Compound 2d, 2-(naphthalen-2-yl)-4-(piperidin-1-yl)butan-1-ol]	0.015 ± 0.006 µM	11	effect on water permeability in heat-stressed HeLa cells (HeLa cells): in line with that of S1R antagonists; effect on percentage of differentiated PC12 cells, co-administration with PRE-084 (PC12 cells): significantly reduced; effect on NGF-induced neurite outgrowth, compound alone (PC12 cells): did not significantly enhance
COc1ccc2cc(C(CO)CCN3CCCCC3)ccc2c1 (stereo not drawn) [Compound 3d, 2-(6-methoxynaphthalen-2-yl)-4-(piperidin-1-yl)butan-1-ol]	0.038 ± 0.009 µM	32	
NGF			differentiation, % of PC12 cells (PC12 cells; NGF alone at 2.5 nM): 22 ± 2%
OCC(CCN1CCOCC1)c1ccc2ccccc2c1 (stereo not drawn) [Compound 2a, 4-morpholino-2-(naphthalen-2-yl)butan-1-ol]	0.206 ± 0.037 µM	31	
CCCN(CCC)CCc1ccc(OC)c(OCCc2ccccc2)c1 [NE-100, reference compound]			effect on water permeability in heat-stressed HeLa cells (HeLa cells): has no effect
OCC(CCN1CCOCC1)c1ccc(-c2ccccc2)cc1 (stereo not drawn) [Compound 1a, 2-([1,1’-biphenyl]-4-yl)-4-morpholinobutan-1-ol]	0.013 ± 0.003 µM	24	effect on water permeability in heat-stressed HeLa cells (HeLa cells): in line with that of S1R antagonists; effect on percentage of differentiated PC12 cells, co-administration with PRE-084 (PC12 cells): significantly reduced; effect on NGF-induced neurite outgrowth, compound alone (PC12 cells): did not significantly enhance
COc1ccc2cc(C(CO)CCN3CCC(Cc4ccccc4)CC3)ccc2c1 (stereo not drawn) [Compound 3e, 4-(4-benzylpiperidin-1-yl)-2-(6-methoxynaphthalen-2-yl)butan-1-ol]	0.085 ± 0.011 µM	0.6	
O=C(OCCN1CCOCC1)C1(c2ccccc2)CCCCC1 [PRE-084, reference compound]			effect on water permeability in heat-stressed HeLa cells (HeLa cells): effective in restoring water permeability; neurite outgrowth, % of PC12 cells (PC12 cells; PRE-084 at 10 μM, with NGF): 36 ± 4%
CCN(CC)CCC(CO)c1ccc2cc(OC)ccc2c1 (stereo not drawn) [Compound 3b, 4-(diethylamino)-2-(6-methoxynaphthalen-2-yl)butan-1-ol]	0.087 ± 0.028 µM	14	
CN(CCC(CO)c1ccc2ccccc2c1)Cc1ccccc1 (stereo not drawn) [Compound 2c, 4-(benzyl(methyl)amino)-2-(naphthalen-2-yl)butan-1-ol]	0.0095 ± 0.0018 µM	4	
COc1ccc2cc(C(CO)CCN(C)Cc3ccccc3)ccc2c1 (stereo not drawn) [Compound 3c, 4-(benzyl(methyl)amino)-2-(6-methoxynaphthalen-2-yl)butan-1-ol]	0.02 ± 0.003 µM	7	
CCN(CC)CCC(CO)c1ccc2ccccc2c1 (stereo not drawn) [Compound 2b, 4-(diethylamino)-2-(naphthalen-2-yl)butan-1-ol]	0.11 ± 0.025 µM	10	
OCC(CCN1CCC(Cc2ccccc2)CC1)c1ccc2ccccc2c1 (stereo not drawn) [Compound 2e, 4-(4-benzylpiperidin-1-yl)-2-(naphthalen-2-yl)butan-1-ol]	0.025 ± 0.004 µM	13	
OCC(CCN1CCC(Cc2ccccc2)CC1)c1ccc(-c2ccccc2)cc1 (stereo not drawn) [Compound 1e, 2-([1,1’-biphenyl]-4-yl)-4-(4-benzylpiperidin-1-yl)butan-1-ol]	0.094 ± 0.012 µM	2	
COc1ccc2cc(C(CO)CCN3CCOCC3)ccc2c1 (stereo not drawn) [Compound 3a, 2-(6-methoxynaphthalen-2-yl)-4-morpholinobutan-1-ol]	0.324 ± 0.01 µM	4	
CCN(CC)CCC(CO)c1ccc(-c2ccccc2)cc1 (stereo not drawn) [Compound 1b, 2-([1,1’-biphenyl]-4-yl)-4-(diethylamino)butan-1-ol]	0.02 ± 0.004 µM	34	
